Assay results reported in patent US10471046B2, “Method for treating, preventing, or reducing the risk of skin infection” (Melinta Subsidiary Corp., priority 2014, dated 2019).
Converted amounts (≈) assume the structure as drawn. Like-named read-outs stand apart in the source and are kept apart here.

Legend:
B. fragilis [1] = test: Agar dilution MIC (CLSI reference method); type: cell-based; conditions: Bacteroides fragilis, ATCC25285; B. fragilis ATCC 25285
B. thetaiotaomicron [2] = test: microbe, parasite or virus in culture; type: cell-based; conditions: Bacteroides thetaiotaomicron, ATCC29741; B. thetaiotaomicron ATCC 29741; read-out: MIC, agar dilution
F. magna [3] = test: Agar dilution MIC (CLSI reference method); type: cell-based
P. acnes = test: Agar dilution MIC (CLSI reference method); type: cell-based; conditions: for MIC: Cutibacterium acnes
P. granulosum [4] = test: Agar dilution MIC (CLSI reference method); type: cell-based
G. vaginalis [5] = test: Agar dilution MIC (CLSI reference method); type: cell-based; conditions: for MIC: Gardnerella vaginalis
B. fragilis [6] = test: Broth microdilution MIC; type: cell-based; conditions: Bacteroides fragilis, ATCC25285; B. fragilis ATCC 25285
B. thetaiotaomicron [7] = test: microbe, parasite or virus in culture; type: cell-based; conditions: Bacteroides thetaiotaomicron, ATCC29741; B. thetaiotaomicron ATCC 29741; read-out: MIC, broth microdilution
F. magna [8] = test: Broth microdilution MIC; type: cell-based; conditions: Finegoldia magna, ATCC15794; F. magna ATCC 15794
P. granulosum [9] = test: Broth microdilution MIC; type: cell-based
G. vaginalis [10] = test: Broth microdilution MIC; type: cell-based; conditions: for MIC: Gardnerella vaginalis
S. aureus = test: Broth microdilution MIC; type: cell-based; conditions: Staphylococcus aureus, ATCC29213; S. aureus ATCC 29213
Enterococcus faecalis = test: MIC against ribosome-based resistance phenotypes; type: cell-based; conditions: read-out: Minimum Inhibitory Concentration (MIC)
Text: (§1) Furthermore, the antibiotic compounds can be assayed for anti-proliferative or anti-infective properties on a cellular level. For example, where the target organism is a microorganism, the activity of compounds of interest can be assayed by growing the microorganisms of interest in media either containing or lacking the compound. Growth inhibition can be indicative that the molecule could be acting as a protein synthesis inhibitor. […] For this purpose, a panel of bacterial strains can be assembled to include a variety of target pathogenic species, some containing resistance mechanisms that have been characterized. Use of such a panel of organisms permits the determination of structure-activity relationships not only in regards to potency and spectrum, but also with a view to obviating resistance mechanisms.

Enterococcus faecium = test: MIC against ribosome-based resistance phenotypes; type: cell-based; conditions: Enterococcus faecium A6349; VanA + Lin-R (G2576U); read-out: Minimum Inhibitory Concentration (MIC)
Text: as §1, with “mechanisms. The assays can be performed in microtiter trays according to conventional methodologies as published by The National Committee for Clinical Laboratory Standards (NCCLS) guidelines (NCCLS. M7-A5-Methods for Dilution Antimicrobial Susceptibility Tests for Bacteria That Grow Aerobically; Approved Standard-Fifth Edition. NCCLS Document M100-S12/M7 (ISBN 1-56238-394-9)).” for “mechanisms.”

[11] = Long-term rat safety study; type: in vivo
Text: There was 100% survival in all dose groups.

[12] = Human exposure (AUC 0-24); conditions: in vivo; human @ 300 mg dose
[13] = Radezolid levels in granuloma pouch and plasma; type: in vivo; conditions: FIGS. 3-4
[14] = type: physicochemical; conditions: radezolid salt forms in HPLC grade water, ambient temperature; listed as Free base
[15] = Approximate solubility in solvents by aliquot addition; type: physicochemical; conditions: ambient temperature
Experimental: Solubilities of the radezolid free base and radezolid HCl salt in various solvents were estimated and are shown in Tables 10 and 11, respectively, below. A weighed sample was treated with aliquots of test solvent at ambient temperature. Complete dissolution of the test material was determined by visual inspection. Solubility was estimated based on the total solvent used to provide complete dissolution. The actual solubility may be greater than the approximate solubility calculated because of the use of solvent aliquots that were too large or due to a slow rate of dissolution. […] If complete dissolution was achieved as a result of only one aliquot addition, the solubility is expressed as “greater than.” The approximate solubilities were rounded to the nearest whole number.

[16] = test system: intracellular S. aureus (including linezolid-resistant); conditions: cited from earlier work
Listeria monocytogenes = conditions: cited from earlier work
Legionella pneumophila = conditions: cited from earlier work
[17] = ATCC14018, G. vaginalis ATCC 14018
[18] = ATCC49145, G. vaginalis ATCC 49145

In the case of CC(=O)NC[C@H]1CN(c2ccc(-c3ccc(CNCc4cnn[nH]4)cc3)c(F)c2)C(=O)O1 [Radezolid, (5S)—N-[3-(2-Fluoro-4′-{[(1H-[1,2,3]triazol-4-ylmethyl)-amino]-methyl}-biphenyl-4-yl)-2-oxo-oxazolidin-5-ylmethyl]-acetamide], the MIC (B. fragilis [1]) is reported as 4 µg/mL (≈ 9.12 µM), the MIC (B. thetaiotaomicron [2]) is reported as greater than 8 µg/mL and the “agar dilution MIC, fold more potent than linezolid” value (F. magna [3]; F. magna) is reported as 4 fold. The “difference between broth and agar dilution MICs” value (F. magna [3]; F. magna) was 4 fold, the MIC (F. magna [3]; Finegoldia magna, ATCC15794, F. magna ATCC 15794) was 0.5 µg/mL (≈ 1.14 µM) and the MIC (P. acnes; ATCC11827, P. acnes ATCC 11827) was 0.125 µg/mL (≈ 0.285 µM). The MIC (P. acnes; ATCC11828, P. acnes ATCC 11828) was 0.125 µg/mL (≈ 0.285 µM), the MIC (P. acnes; ATCC29399, P. acnes ATCC 29399) was 0.125 µg/mL (≈ 0.285 µM) and the “agar dilution MIC, fold more potent than linezolid” value (P. acnes; P. acnes) was 4 fold. For the same compound, the “agar dilution MIC, fold more potent than linezolid” value (P. granulosum [4]; P. granulosum) was 8 fold, the MIC (P. granulosum [4]; P. granulosum ATCC 25746) was 0.25 µg/mL (≈ 0.57 µM) and the “agar dilution MIC, fold more potent than linezolid” value (G. vaginalis [5]; G. vaginalis) was 8 fold. It also gave an MIC (G. vaginalis [5]; [17]) of 0.06 µg/mL (≈ 0.137 µM), an MIC (G. vaginalis [5]; [18]) of 0.06 µg/mL (≈ 0.137 µM) and an MIC (B. fragilis [6]) of 2 µg/mL (≈ 4.56 µM). For the same compound, the MIC (B. thetaiotaomicron [7]) was 8 µg/mL (≈ 18.2 µM), the MIC (F. magna [8]) was 0.125 µg/mL (≈ 0.285 µM) and the “broth microdilution, fold more active than linezolid” value (P. granulosum [9]; P. granulosum) was 8 fold. The MIC (P. granulosum [9]; P. granulosum ATCC 25746) was 0.125 µg/mL (≈ 0.285 µM), the “broth microdilution, fold more active than linezolid” value (G. vaginalis [10]; G. vaginalis 49145) was 8 fold and the MIC (G. vaginalis [10]; [17]) was 0.125 µg/mL (≈ 0.285 µM). For the same compound, the MIC (G. vaginalis [10]; [18]) was 0.06 µg/mL (≈ 0.137 µM), the MIC (S. aureus) was 2 µg/mL (≈ 4.56 µM) and the MIC (Enterococcus faecalis; ATCC29212, Enterococcus faecalis ATCC29212, phenotype QC) was 0.25 µg/mL (≈ 0.57 µM). For the same compound, the MIC (Enterococcus faecalis; ATCC29212, Enterococcus faecalis ATCC29212-P5, Lin-R (G2576U)) was 1 µg/mL (≈ 2.28 µM), the MIC (Enterococcus faecalis; Enterococcus faecalis 1069, VanB) was 0.25 µg/mL (≈ 0.57 µM) and the MIC (Enterococcus faecium) was 0.5 µg/mL. For the same compound, the survival ([11]; both, rat, in vivo) was 100%, the “Safety margin (Rat NOAEL AUC/Human efficacious AUC)” value ([11]; calculated from rat and human AUC 0-24) was 30.8x and the AUC(0-t) ([11]; male, rat, in vivo, 200 mg/kg) was 102 µg·h/mL. The “changes in hematology, coagulation, clinical chemistry, or urinalysis” value ([11]; rat, in vivo) was “No test article-related changes”, the “safety in long-term rat study” value ([11]; rat, in vivo) was “good safety” and the AUC(0-t) [12] was 3330 ng·h/mL. The “levels in granuloma pouch versus plasma over time” value [13] was “remain high in granuloma pouch even as they decline in the plasma”, the solubility [14] was less than 0.02 mg/mL and the solubility ([15]; 2,2,2-trifluoroethanol (TFE), organic solvent or mixture, thermodynamic from solid, 2,2,2-trifluoroethanol (TFE)) was no less than 54000 µg/mL. For the same compound, the solubility ([15]; HFIPA/methanol (1:3 by volume), organic solvent or mixture, thermodynamic from solid, HFIPA/Methanol (1:3 by volume)) was less than 1000 µg/mL, the solubility ([15]; acetone, organic solvent or mixture, thermodynamic from solid) was less than 1000 µg/mL and the solubility ([15]; acetonitrile, organic solvent or mixture, thermodynamic from solid) was less than 1000 µg/mL. It also gave a solubility ([15]; dichloromethane, organic solvent or mixture, thermodynamic from solid) of less than 1000 µg/mL, a solubility ([15]; ethyl acetate, organic solvent or mixture, thermodynamic from solid) of less than 1000 µg/mL and a solubility ([15]; ethyl ether, organic solvent or mixture, thermodynamic from solid) of less than 1000 µg/mL. The solubility ([15]; hexafluoroisopropanol (HFIPA), organic solvent or mixture, thermodynamic from solid) was no less than 245000 µg/mL, the solubility ([15]; hexamethylphosphoramide, organic solvent or mixture, thermodynamic from solid, Hexamethyl-phosphoramide) was less than 26000 µg/mL and the solubility ([15]; methanol, organic solvent or mixture, thermodynamic from solid) was less than 1000 µg/mL. For the same compound, the solubility ([15]; tetrahydrofuran (THF), organic solvent or mixture, thermodynamic from solid) was less than 1000 µg/mL, the solubility ([15]; water, thermodynamic from solid) was less than 1000 µg/mL and the intracellular killing [16] was “kills”. For the same compound, the intracellular killing (Listeria monocytogenes) was “kills” and the intracellular killing (Legionella pneumophila) was “kills”.
